In patent US20260034253A1, “NECTIN-4 MINIPROTEIN CONJUGATES” (Aktis Oncology, Inc., priority 2022, published 2026):
Bridge positions count the residues as written; N and C are the ends. Primed or numbered codes have the meaning given here. Ends that are not written are not given here. * marks the point of attachment. DOTA‑PEG4 = alpha-(1,4,7,10-tetraazacyclododecan-1,4,7,10-tetraacetate)-4(ethylene glycol); DOTA = O=C(O)CN1CCN(CC(=O)O)CCN(CC(=O)*)CCN(CC(=O)O)CC1; PEG4′ = polyethylene glycol (PEG4) linker; PEG4 = NCCOCCOCCOCCOCCC(=O)O

Assays:
[1] = Plasma pharmacokinetic analysis in Sprague Dawley rats; type: in vivo; conditions: rat, bolus intravenous injection, read-out: PK DATA (t½ - min)
Protocol: Nine blood collection timepoints are taken from 2-24 hours, processed to plasma with K2EDTA, and are frozen for subsequent bioanalysis. Plasma miniprotein concentrations are measured by LC-MS/MS. Plasma FITC-sinistrin is measured fluorometrically. […] Finally, non-compartmental analysis is performed to estimate plasma pharmacokinetic parameters.
Exemplary pK data for exemplary Nectin-4 miniprotein monomers were tested in vivo (t1/2 mins), showing an average pK for these exemplary compounds.

[2] = target: T1, human Nectin-4 (Homo sapiens, UniProt Q96NY8); assay: Surface plasmon resonance (Biacore T200) binding to human Nectin-4; conditions: human Nectin-4, 1:1 binding model, twenty-five degrees Celsius
T1 sequence (Q96NY8 32-510): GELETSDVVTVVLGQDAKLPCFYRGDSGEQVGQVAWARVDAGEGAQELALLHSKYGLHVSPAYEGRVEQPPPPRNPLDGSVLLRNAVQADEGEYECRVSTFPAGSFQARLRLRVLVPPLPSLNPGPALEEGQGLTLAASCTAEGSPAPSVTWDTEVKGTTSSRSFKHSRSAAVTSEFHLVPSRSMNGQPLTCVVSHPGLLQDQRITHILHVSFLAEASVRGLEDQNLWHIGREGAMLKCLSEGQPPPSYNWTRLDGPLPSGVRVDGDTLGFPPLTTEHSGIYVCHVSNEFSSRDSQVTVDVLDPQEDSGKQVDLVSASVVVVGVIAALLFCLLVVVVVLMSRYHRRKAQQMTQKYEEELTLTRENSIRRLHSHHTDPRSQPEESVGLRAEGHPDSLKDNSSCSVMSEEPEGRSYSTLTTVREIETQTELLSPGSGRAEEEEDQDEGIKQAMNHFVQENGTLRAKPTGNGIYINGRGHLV
Protocol: (§1) Peptide binding affinity to the target protein was measured by SPR using a Biacore T200 instrument. The target protein was covalently coupled to a Biacore chip surface using free amine-coupling chemistry (NHS/EDC) and all uncoupled sites were blocked with ethanolamine. Free peptides were flowed over the target protein surface in increasing concentrations to measure association (KA) and dissociation ([…]) to calculate the equilibrium dissociation constant (KD) using an appropriate binding model (see, e.g., Nikolas Stroth, J Biol Methods. 2016; 3 (1)).
(§2) In all figures (FIGS. 1A, 1B, 2A, and 2B), lines on graphs are labeled from top to bottom, beginning with letter “a,” and the corresponding concentration is noted to the right of the figure, next to the letter designating each line.
Surface plasmon resonance (SPR) analyses were performed using Biacore T200 (GE Healthcare). Target protein (“ligand”) was immobilized to a CM5 Series S sensor chip (Cytiva) using amine-coupling chemistry. Running buffer was 0.05% Surfactant P20 in HEPES buffered saline (HBS-P), pH 7.4 (Cytiva). Immobilization was performed at 25° C. Carboxyl groups in each flow cell were activated using a 1:1 mixture of 0.4 M 1-ethyl-3-(3-dimethylaminopropyl)-carbodiimide in water (EDC) and 0.1 M N-hydroxysuccinimide in water (NHS) for 7 minutes. The ligand was prepared in 10 mM Sodium acetate pH 5 (Cytiva). Pulsatile injections were made to target a specific immobilization level. Any remaining amine-reactive esters on the chip surface were blocked with a 7-minute injection of 1 M ethanolamine, pH 8.5. Three 10-second pulses of 50 mM Sodium hydroxide were then made to remove any unbound ligand. Reference cells were modified using amine coupling chemistry, omitting ligand injection.
Increase in signal (RU) is proportional to an increase in binding events between the analyte and ligand surface. The injection was then stopped, and dissociation was measured. The resulting sensorgram has reference surface and blank injection subtracted prior to curve fitting. Measured association (ka, 1/M^s−1) and dissociation (kd, s^−1) were fit to a 1:1 binding model to calculate an equilibrium dissociation constant, KD(M) for each analyte. Equilibrium binding constants (KD) and binding inhibition constants (Ki) estimated from surface plasmon resonance (SPR) or DELFIA® binding assays for exemplary compounds as set forth in Table 2A.
In this example, affinity for mouse Nectin-4 (FIG. 3A) and human Nectin-4 (FIG. 3B) were measured using a 1:1 binding model at twenty-five degrees Celsius. In both of FIGS. 3A and 3B, lines on graphs were labeled from top to bottom, beginning with letter a, and the corresponding concentration was noted to the right of the figure.

[3] = target: T2, mouse Nectin-4 (Mus musculus, UniProt Q8R007); assay: Surface plasmon resonance (Biacore T200) binding to mouse Nectin-4; conditions: 1:1 binding model, twenty-five degrees Celsius
T2 sequence (Q8R007 31-508): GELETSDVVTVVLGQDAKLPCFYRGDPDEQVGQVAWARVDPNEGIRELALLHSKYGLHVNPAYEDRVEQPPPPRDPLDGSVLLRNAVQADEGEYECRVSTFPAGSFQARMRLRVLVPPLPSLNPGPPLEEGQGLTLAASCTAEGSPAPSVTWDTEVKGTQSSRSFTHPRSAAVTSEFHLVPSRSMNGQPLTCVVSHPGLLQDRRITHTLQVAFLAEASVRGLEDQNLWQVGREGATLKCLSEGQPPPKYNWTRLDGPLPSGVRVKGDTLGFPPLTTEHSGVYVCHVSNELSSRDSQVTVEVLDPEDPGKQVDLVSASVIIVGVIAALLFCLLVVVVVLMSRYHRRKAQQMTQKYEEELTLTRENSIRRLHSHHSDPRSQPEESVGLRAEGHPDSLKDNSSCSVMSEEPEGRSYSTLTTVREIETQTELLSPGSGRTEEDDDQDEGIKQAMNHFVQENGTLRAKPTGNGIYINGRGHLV
Protocol: as §1, §2
Surface plasmon resonance (SPR) analyses were performed using Biacore T200 (GE Healthcare). Target protein (“ligand”) was immobilized to a CM5 Series S sensor chip (Cytiva) using amine-coupling chemistry. Running buffer was 0.05% Surfactant P20 in HEPES buffered saline (HBS-P), pH 7.4 (Cytiva). Immobilization was performed at 25° C. Carboxyl groups in each flow cell were activated using a 1:1 mixture of 0.4 M 1-ethyl-3-(3-dimethylaminopropyl)-carbodiimide in water (EDC) and 0.1 M N-hydroxysuccinimide in water (NHS) for 7 minutes. The ligand was prepared in 10 mM Sodium acetate pH 5 (Cytiva). Pulsatile injections were made to target a specific immobilization level. Any remaining amine-reactive esters on the chip surface were blocked with a 7-minute injection of 1 M ethanolamine, pH 8.5. […]
Increase in signal (RU) is proportional to an increase in binding events between the analyte and ligand surface. The injection was then stopped, and dissociation was measured. […] Measured association (ka, 1/M^s−1) and dissociation (kd, s^−1) were fit to a 1:1 binding model to calculate an equilibrium dissociation constant, KD(M) for each analyte. […]
In this example, affinity for mouse Nectin-4 (FIG. 3A) and human Nectin-4 (FIG. 3B) were measured using a 1:1 binding model at twenty-five degrees Celsius. […]

[4] = test system: HT1376 urothelial cancer cells; assay: In vitro cell cytotoxicity assay of actinium-225 radioconjugates (CellTiter-Glo); type: cell-based; conditions: compound radiolabeled with 225Ac, 24 hours treatment, 4-5 days regrowth, cell viability
Protocol: Cytotoxicity to actinium-225 radioconjugates was assessed in HT1376 urothelial cancer cells. Cells were seeded in 96-well plates at densities of 250 to 1000 cells per well two days prior to treatment. On the day of treatment actinium-225 radioconjugates were diluted in culture medium to concentrations ranging from 0.0001 to 100 uCi/mL and treatment solutions were incubated with cells for 24 hours. At the end of the treatment period, the treatment solution was removed, and fresh culture medium was replenished for the regrowth period of the assay that lasted 4-5 days. At the end of the regrowth period the culture medium was removed and viability was assessed by CellTiter-Glo (Promega, Waltham MA) luminescent assay and the plates were read on a Perkin Elmer Enspire multimode plate reader. Data were normalized to treatment controls and plotted as non-linear sigmoidal dose response curves to determine the effective concentration for 50% reduction in cell viability.

[5] = previously published, Challita-Eid et al Cancer Res (2016); cited from earlier work
[6] = target: T3, Nectin-4 on HT1376 urothelial cancer cells (UniProt Q96NY8 32-510); assay: saturation radioligand binding (Lu-177) on HT1376 cells, 4 C, gamma counting
T3 construct: whole, on cells; also called HT1376 cells
T3 sequence (looked up): T1 sequence (Q96NY8 32-510)
Protocol: Radioligand binding was performed in HT1376 urothelial cancer cells by method of saturation. Cells were seeded at 20,000 cells per well in 96-well format 48 hours prior to assay. Lutetium-177-labeled radioconjugates of C215 and C117 were incubated with cells at 4 deg C. for 1 h at various increasing concentrations of radioligand. At the end of incubation cells were washed three times with PBS and radioactivity was quantified by gamma counting as shown in Table 3.

CC[C@H](C)[C@@H]1NC(=O)[C@H](CC(=O)O)NC(=O)CNC(=O)CNC(=O)[C@H](CCCNC(=N)N)NC(=O)[C@H](CC(C)C)NC(=O)[C@H](CCCNC(=N)N)NC(=O)[C@H](CCCCN)NC(=O)[C@H](CC(C)C)NC(=O)[C@H](C)NC(=O)[C@H]([C@@H](C)O)NC(=O)[C@H](Cc2ccccc2)NC(=O)[C@H](Cc2ccccc2)NC(=O)[C@H](CCC(=O)O)NC(=O)[C@H](CCC(=O)O)NC(=O)[C@H](CC(=O)O)NC(=O)[C@H](Cc2ccc(O)cc2)NC(=O)[C@H](CCC(=O)O)NC(=O)[C@@H](NC(=O)CCOCCOCCOCCOCCNC(=O)CN2CCN(CC(=O)O)CCN(CC(=O)O)CCN(CC(=O)O)CC2)CSSC[C@@H]2NC(=O)[C@H](CC(C)C)NC(=O)[C@H](CCCCNC(C)=O)NC(=O)[C@@H]3CCCN3C(=O)[C@H](C(C)C)NC(=O)[C@H](CCCCNC(C)=O)NC(=O)[C@H](CCCCNC(C)=O)NC(=O)[C@H](Cc3ccccc3)NC(=O)[C@H](CCCCNC(C)=O)NC(=O)[C@H](CCCCNC(C)=O)NC(=O)[C@H](CCCCNC(C)=O)NC(=O)[C@H]([C@@H](C)CC)NC(=O)[C@H](Cc3ccc(O)cc3)NC(=O)[C@H](Cc3ccc(O)cc3)NC(=O)[C@H](CSSC[C@@H](C(N)=O)NC(=O)CNC(=O)[C@H](CC(C)C)NC(=O)[C@H](CCCCN)NC(=O)[C@H](CC(=O)O)NC(=O)[C@H](CC(C)C)NC(=O)[C@H]([C@@H](C)CC)NC(=O)[C@H](CCC(=O)O)NC(=O)[C@H](CCC(=O)O)NC(=O)[C@H]([C@@H](C)CC)NC2=O)NC1=O [Compound C216]
half-life [1]: 31.4 min

CC[C@H](C)[C@@H]1NC(=O)[C@H](CC(=O)O)NC(=O)CNC(=O)CNC(=O)[C@H](CCCNC(N)=O)NC(=O)[C@H](CC(C)C)NC(=O)[C@H](CCCNC(N)=O)NC(=O)[C@H](CCCCNC(C)=O)NC(=O)[C@H](CC(C)C)NC(=O)[C@H](C)NC(=O)[C@H]([C@@H](C)O)NC(=O)[C@H](Cc2ccccc2)NC(=O)[C@H](Cc2ccccc2)NC(=O)[C@H](CCC(=O)O)NC(=O)[C@H](CCC(=O)O)NC(=O)[C@H](CC(=O)O)NC(=O)[C@H](Cc2ccc(O)cc2)NC(=O)[C@H](CCC(=O)O)NC(=O)[C@@H](NC(=O)CCOCCOCCOCCOCCNC(=O)CN2CCN(CC(=O)O)CCN(CC(=O)O)CCN(CC(=O)O)CC2)CSSC[C@@H]2NC(=O)[C@H](CC(C)C)NC(=O)[C@H](CCCCN)NC(=O)[C@@H]3CCCN3C(=O)[C@H](C(C)C)NC(=O)[C@H](CCCCN)NC(=O)[C@H](CCCCN)NC(=O)[C@H](Cc3ccccc3)NC(=O)[C@H](CCCCN)NC(=O)[C@H](CCCCN)NC(=O)[C@H](CCCCN)NC(=O)[C@H]([C@@H](C)CC)NC(=O)[C@H](Cc3ccc(O)cc3)NC(=O)[C@H](Cc3ccc(O)cc3)NC(=O)[C@H](CSSC[C@@H](C(N)=O)NC(=O)CNC(=O)[C@H](CC(C)C)NC(=O)[C@H](CCCCNC(C)=O)NC(=O)[C@H](CC(=O)O)NC(=O)[C@H](CC(C)C)NC(=O)[C@H]([C@@H](C)CC)NC(=O)[C@H](CCC(=O)O)NC(=O)[C@H](CCC(=O)O)NC(=O)[C@H]([C@@H](C)CC)NC2=O)NC1=O [Compound C217]
half-life [1]: 31.4 min

Ac-CEYDEEFFAGLKRLRGGDICYYIKKKFDKVPDLCIEEILDKLGC-OH (disulfide 1-34, 20-44) [Compound C9]
kd (dissociation) [2]: 0.02271 s⁻¹
kd (dissociation) [3]: 0.02134 s⁻¹

C214 ({DOTA‑PEG4}-CEYDEEFFTALKRLRGGDICYYIKKKFDYLPKLCIEEILDNLGC-NH2; disulfide 1-34, 20-44) [Compound C214]
EC50 (microcurie/milliliter) for Ac-225 radioconjugates [4]: 0.014 microcurie/milliliter

enfortumab vedotin
PK DATA (t½ - min) [5]: 2,476.8 min
PK DATA (t½) [5]: 41.3 h

{DOTA-PEG4}-CEYDEEFFAGLKRLRGGDICYYIKKKFDKVPDLCIEEILDKLGC (disulfide 1-34, 20-44) [Compound C12]
kd (dissociation) [2]: 0.01697 s⁻¹
Kd ([2]; read-out: KD): 10.5 nM
kd (dissociation) [3]: 0.02625 s⁻¹

{DOTA-PEG4}-CEYDEEFFAGLKRLRGGDICYYIKKKFDKVPDLCIEEILDKLGC-OH (disulfide 1-34, 20-44) [Compound C91]
kd (dissociation) [2]: 0.02966 s⁻¹
kd (dissociation) [3]: 0.02817 s⁻¹

B1: Lutetium-177-labeled radioconjugate of C117 (designed binder)
chain: {DOTA-PEG4′}-CEYDEEFFTALKRLRGGDICYYIQAKFQYLPKLCIEEILDNLGCS-OH
modifications: disulfide 1-34, 20-44; also: DOTA labeled with lutetium-177
Kd [6]: 0.89 nM

B2: Lutetium-177-labeled radioconjugate of C215 (designed binder)
chain: {DOTA-PEG4′}-CEYDEEFFTALKRLRGGDICYYIKKKFKKVPKLCIEEILDKLGC-OH
modifications: disulfide 1-34, 20-44; also: DOTA labeled with lutetium-177
Kd [6]: 4.24 nM
